Laboratory results: US20050250826A1, “Compounds, compositions, processes of making, and methods of use related to inhibiting macrophage migration inhibitory factor” (priority 2004, published 2005)

How the values were obtained:
[1] = test system: carageenin-induced edema; conditions: rat paw; compared to parent compound unsubstituted in the para position of the phenyl ring; Curuzu et al. 1991; cited from earlier work
[2] = target: T1, recombinant human MIF (Homo sapiens, UniProt P14174); experiment: MIF dopachrome tautomerase assay; format: biochemical; conditions: dose-dependent inhibition
T1 construct: made in house; host or cells: E. coli
T1 sequence (P14174 2-115 limits assumed): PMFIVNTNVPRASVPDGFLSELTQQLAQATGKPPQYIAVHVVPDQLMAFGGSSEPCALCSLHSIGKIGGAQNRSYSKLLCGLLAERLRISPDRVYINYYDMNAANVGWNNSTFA
Text: The compounds of Formula I or II are identified as MIF inhibitors because they inhibit MIF enzymatic activity in vitro. […] This reaction predicts therapeutic MIF inhibitors (see U.S. Pat. No. 6,420,188 and U.S. Pat. No. 6,599,938, the disclosures of which are incorporated herein by reference in their entirety). Inhibition of MIF tautomerase activity is predictive of inhibition of MIF biological activity.
A method for performing an assay for MIF dopachrome tautomerase activity begins with the preparation and oxidation of a DOPA-related substrate precursor, such as L-3,4-dihydroxyphenylalanine methyl ester. […] The absorbance is measured at about 475 nm (or 550 nm for substrate concentrations in excess […]). A test compound may be included in the assay solution such that the effect of the test compound on MIF tautomerase activity (i.e., as an inhibitor) may be measured by noting the change in kinetics of substrate tautomerization compared to control assays performed in the absence of the test inhibitor compound. […]
L-3,4-dihydroxyphenylalanine methyl ester (e.g., Sigma D-1507) is a dopachrome substrate precursor, and is prepared as a 4 mM solution in dd H2O Sodium periodate is prepared as an 8 mM solution in dd H2O. […] Inhibition of MIF tautomerase activity by the test compounds is determined by inhibition of the de-colorization of the assay mixture, often at the 20 sec time point. […]

| Compound | anti-inflammatory activity [1] | IC50 [2] | other results |
| --- | --- | --- | --- |
| O=C(O)CC1CC(c2ccc(O)cc2)=NO1 (centres unmarked) [3-(4-hydroxyphenyl)-4,5-dihydro-5-isoxazolineacetic acid] | devoid of anti-inflammatory activity | – | – |
| COc1ccc(C2=NOC(CC(=O)O)C2)cc1 (centres unmarked) [3-(4-methoxyphenyl)-4,5-dihydro-5-isoxazolineacetic acid] | dramatically reduced | – | – |
| CCOC(=O)C(C)CC1CC(c2ccc(O)cc2)=NO1 (centres unmarked) [Compound 32] | – | – | melting point: 192 to 194 °C |
| O=C(CC1CC(c2ccc(O)cc2)=NO1)N1CCOCC1 (centres unmarked) [Compound 69] | – | ~10 µM | – |
| O=C(CC1CC(c2ccc(O)cc2)=NO1)N1CCCC1 (centres unmarked) [Compound 68] | – | ~10 µM | – |
